Source: paper PMC3748743 (Analytical chemistry, 2013)

Target: BoNT/A (Clostridium botulinum, UniProt P0DPI1)
Type: biochemical

Chain of BoNT/A (P0DPI1 whole entry, looked up): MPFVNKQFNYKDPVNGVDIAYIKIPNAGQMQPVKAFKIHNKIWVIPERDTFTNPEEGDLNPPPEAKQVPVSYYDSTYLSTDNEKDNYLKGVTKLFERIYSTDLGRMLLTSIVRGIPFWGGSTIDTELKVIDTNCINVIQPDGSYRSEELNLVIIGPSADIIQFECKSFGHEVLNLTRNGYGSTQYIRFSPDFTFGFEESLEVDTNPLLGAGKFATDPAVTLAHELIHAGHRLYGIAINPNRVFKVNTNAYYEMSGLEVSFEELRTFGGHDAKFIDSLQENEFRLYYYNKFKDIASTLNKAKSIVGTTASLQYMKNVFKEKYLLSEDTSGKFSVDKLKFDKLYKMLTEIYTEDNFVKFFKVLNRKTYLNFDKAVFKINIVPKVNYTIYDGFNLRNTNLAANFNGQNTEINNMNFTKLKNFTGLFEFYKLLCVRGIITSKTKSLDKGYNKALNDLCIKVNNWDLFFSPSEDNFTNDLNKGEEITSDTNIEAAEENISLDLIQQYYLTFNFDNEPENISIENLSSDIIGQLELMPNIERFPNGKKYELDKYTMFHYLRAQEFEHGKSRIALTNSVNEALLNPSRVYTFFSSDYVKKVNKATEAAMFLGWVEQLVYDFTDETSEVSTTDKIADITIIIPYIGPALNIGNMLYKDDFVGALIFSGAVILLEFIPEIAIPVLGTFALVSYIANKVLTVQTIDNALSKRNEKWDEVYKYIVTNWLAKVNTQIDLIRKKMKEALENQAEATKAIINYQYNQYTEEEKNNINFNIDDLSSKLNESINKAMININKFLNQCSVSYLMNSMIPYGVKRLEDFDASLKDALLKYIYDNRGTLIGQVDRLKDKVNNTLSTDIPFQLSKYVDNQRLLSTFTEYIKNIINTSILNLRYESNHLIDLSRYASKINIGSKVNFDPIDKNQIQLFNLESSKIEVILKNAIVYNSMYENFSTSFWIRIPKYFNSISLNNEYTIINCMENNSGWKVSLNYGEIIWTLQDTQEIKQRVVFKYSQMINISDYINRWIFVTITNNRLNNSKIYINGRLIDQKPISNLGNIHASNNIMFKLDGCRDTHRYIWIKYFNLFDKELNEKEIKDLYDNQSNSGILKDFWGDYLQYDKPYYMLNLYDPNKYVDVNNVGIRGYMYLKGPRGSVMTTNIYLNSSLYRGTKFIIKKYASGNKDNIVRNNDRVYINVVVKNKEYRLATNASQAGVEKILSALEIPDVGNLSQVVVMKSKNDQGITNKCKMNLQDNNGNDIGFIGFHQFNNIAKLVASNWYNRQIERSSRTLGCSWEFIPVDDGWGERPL

TPEN
Effect on fluorescent signal of BoNT/A ALISSA: significant suppression of fluorescent signal
